US7008636B2, “2,3,5-substituted biphenyls useful in the treatment of insulin resistance and hyperglycemia” (Wyeth, priority 1998, dated 2006)
pIC50: −log10 of the molar value.

Legend:
[1] = target: T1, recombinant, human protein tyrosine phosphatase (PTP) 1B (hPTP1B) (Homo sapiens, UniProt P18031); test: Inhibition of tri-phosphorylated insulin receptor dodecaphosphopeptide dephosphorylation by hPTP1B; type: biochemical; conditions: 50 μM IR triphosphopeptide substrate, 5 min preincubation and 5 min reaction at 37° C., malachite green-ammonium molybdate phosphate detection
T1 construct: made in house
T1 sequence (P18031 1-435): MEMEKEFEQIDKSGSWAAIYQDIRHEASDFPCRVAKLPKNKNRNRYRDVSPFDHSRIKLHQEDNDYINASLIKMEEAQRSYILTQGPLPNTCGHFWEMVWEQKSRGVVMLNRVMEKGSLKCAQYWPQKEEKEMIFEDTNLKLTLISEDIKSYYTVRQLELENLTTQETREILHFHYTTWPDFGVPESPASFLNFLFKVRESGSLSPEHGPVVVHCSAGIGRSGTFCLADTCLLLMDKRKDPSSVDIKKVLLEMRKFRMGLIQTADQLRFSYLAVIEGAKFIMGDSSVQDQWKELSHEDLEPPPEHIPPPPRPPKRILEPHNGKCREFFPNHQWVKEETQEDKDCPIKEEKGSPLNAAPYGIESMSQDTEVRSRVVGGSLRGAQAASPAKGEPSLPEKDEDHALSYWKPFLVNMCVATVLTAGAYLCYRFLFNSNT

| SMILES | melting point | pIC50 [1] |
| --- | --- | --- |
| O=C(O)COc1c(-c2cccc(F)c2)cc(C(=O)NCCCCCCCCc2ccccc2)cc1-c1cccc(F)c1 [Example 83, [3,3″-Difluoro-5′-(8-phenyl-octylcarbamoyl)-[1,1′;3′,1″]terphenyl-2′-yloxy]acetic acid] | > 58 °C (dec.) | 6.27 |
| CN(CCCCCCCCc1ccccc1)C(=O)c1cc(-c2cccc(F)c2)c(OCC(=O)O)c(-c2cccc(F)c2)c1 [Example 84] | > 43 °C (dec.) | 5.99 |
| O=C(O)COc1c(-c2cccc(Cl)c2)cc(C(=O)NCCCCCCCCSc2nc3ccccc3o2)cc1-c1cccc(Cl)c1 [Example 87, {5′-[8-(Benzoxazol-2-ylsulfanyl)-octylcarbamoyl]-3,3″-dichloro-[1,1′;3′1″]-terphenyl-2′-yloxy}acetic acid] | > 68 °C (dec.) | 6.48 |
| Cc1cc(OCCCCCCCCNC(=O)c2cc(-c3cccc(Cl)c3)c(OCC(=O)O)c(-c3cccc(Cl)c3)c2)ccc1F [Example 91, {3,3″-Dichloro-5′-[8-(4-fluoro-3-methyl-phenoxy)-octylcarbamoyl]-[1,1′;3′1″]terphenyl-2′-yloxy}acetic acid] | 138 to 140 °C | 6.50 |
| O=C(O)COc1c(-c2cccc(Cl)c2)cc(C(=O)NCCCCCCCCn2ccnc2)cc1-c1cccc(Cl)c1 [Example 92, [3,3″-Dichloro-5′-(8-imidazol-1-yl-octylcarbamoyl)-[1,1′;3′1″]terphenyl-2′-yloxy]acetic acid] | > 109 °C (dec.) | 6.33 |
| O=C(O)COc1c(-c2cccc(Cl)c2)cc(C(=O)NCCCCCCOC(=O)Nc2ccc(Oc3ccccc3)cc2)cc1-c1cccc(Cl)c1 [Example 95, {3,3″-Dichloro-5′-[6-(4-phenoxy-phenylcarbamoyloxy)-hexylcarbamoyl]-[1,1′;3′1″]terphenyl-2′-yloxy}acetic acid] | > 75 °C (dec.) | 6.19 |

Molecules with a higher pIC50 [1], results first:

| melting point | pIC50 [1] | SMILES |
| --- | --- | --- |
| > 84 °C (dec.) | 6.86 | O=C(O)COc1c(-c2cccc(Cl)c2)cc(C(=O)NCCCCCCCCn2ccc3ccccc32)cc1-c1cccc(Cl)c1 [Example 88, [3,3″-Dichloro-5′-(8-indol-1-yl-octylcarbamoyl)-[1,1′;3′1″]terphenyl-2′-yloxy]acetic acid] |
| > 61 °C (dec.) | 6.76 | N#Cc1cccc(OCCCCCCCCNC(=O)c2cc(-c3cccc(Cl)c3)c(OCC(=O)O)c(-c3cccc(Cl)c3)c2)c1 [Example 89, {3,3″-Dichloro-5′-[8-(3-cyano-phenoxy)-octylcarbamoyl]-[1,1′;3′1″]terphenyl-2′-yloxy}acetic acid] |
| 128 to 131 °C | 7.00 | O=C(O)COc1c(-c2cccc(Cl)c2)cc(C(=O)NCCCCCCCCOCc2ccc(Cl)cc2)cc1-c1cccc(Cl)c1 [Example 90, {3,3″-Dichloro-5′-[8-(4-chloro-benzyloxy)-octylcarbamoyl]-[1,1′;3′1″]terphenyl-2′-yloxy}acetic acid] |
| 141 to 144 °C | 6.86 | O=C(O)COc1c(-c2cccc(Cl)c2)cc(C(=O)NCCCCCCCCn2ccc3cc(F)ccc32)cc1-c1cccc(Cl)c1 [Example 96, {3,3″-Dichloro-5′-[8-(5-fluoro-indol-1-yl)-octylcarbamoyl]-[1,1′;3′1″]terphenyl-2′-yloxy}acetic acid] |
| > 70 °C (dec.) | 6.73 | COc1ccc2c(ccn2CCCCCCCCNC(=O)c2cc(-c3cccc(Cl)c3)c(OCC(=O)O)c(-c3cccc(Cl)c3)c2)c1 [Example 97, {3,3″-Dichloro-5′-[8-(5-methoxy-indol-1-yl)-octylcarbamoyl]-[1,1′;3′1″]terphenyl-2′-yloxy}acetic acid] |
| > 172 °C (dec.) | 6.88 | Cc1ccc2c(c1)cc(C)n2CCCCCCCCNC(=O)c1cc(-c2cccc(Cl)c2)c(OCC(=O)O)c(-c2cccc(Cl)c2)c1 [Example 98, {3,3″-Dichloro-5′-[8-(2,5-dimethyl-indol-1-yl)-octylcarbamoyl]-[1,1′;3′1″]-terphenyl-2′-yloxy}acetic acid] |
